Each molecule was assayed against human GluN1/GluN2B NMDA receptors (Homo sapiens, UniProt Q05586+Q13224) (assay: Cell-based calcium flux (FLIPR) assay on cloned human NR1/NR2B ion channels expressed in mammalian cells). Settings: standard assay; glutamate at ~EC80; FLIPR calcium flux.
human GluN1/GluN2B NMDA receptors, sequence (Q13224 27-1484, other chains not shown): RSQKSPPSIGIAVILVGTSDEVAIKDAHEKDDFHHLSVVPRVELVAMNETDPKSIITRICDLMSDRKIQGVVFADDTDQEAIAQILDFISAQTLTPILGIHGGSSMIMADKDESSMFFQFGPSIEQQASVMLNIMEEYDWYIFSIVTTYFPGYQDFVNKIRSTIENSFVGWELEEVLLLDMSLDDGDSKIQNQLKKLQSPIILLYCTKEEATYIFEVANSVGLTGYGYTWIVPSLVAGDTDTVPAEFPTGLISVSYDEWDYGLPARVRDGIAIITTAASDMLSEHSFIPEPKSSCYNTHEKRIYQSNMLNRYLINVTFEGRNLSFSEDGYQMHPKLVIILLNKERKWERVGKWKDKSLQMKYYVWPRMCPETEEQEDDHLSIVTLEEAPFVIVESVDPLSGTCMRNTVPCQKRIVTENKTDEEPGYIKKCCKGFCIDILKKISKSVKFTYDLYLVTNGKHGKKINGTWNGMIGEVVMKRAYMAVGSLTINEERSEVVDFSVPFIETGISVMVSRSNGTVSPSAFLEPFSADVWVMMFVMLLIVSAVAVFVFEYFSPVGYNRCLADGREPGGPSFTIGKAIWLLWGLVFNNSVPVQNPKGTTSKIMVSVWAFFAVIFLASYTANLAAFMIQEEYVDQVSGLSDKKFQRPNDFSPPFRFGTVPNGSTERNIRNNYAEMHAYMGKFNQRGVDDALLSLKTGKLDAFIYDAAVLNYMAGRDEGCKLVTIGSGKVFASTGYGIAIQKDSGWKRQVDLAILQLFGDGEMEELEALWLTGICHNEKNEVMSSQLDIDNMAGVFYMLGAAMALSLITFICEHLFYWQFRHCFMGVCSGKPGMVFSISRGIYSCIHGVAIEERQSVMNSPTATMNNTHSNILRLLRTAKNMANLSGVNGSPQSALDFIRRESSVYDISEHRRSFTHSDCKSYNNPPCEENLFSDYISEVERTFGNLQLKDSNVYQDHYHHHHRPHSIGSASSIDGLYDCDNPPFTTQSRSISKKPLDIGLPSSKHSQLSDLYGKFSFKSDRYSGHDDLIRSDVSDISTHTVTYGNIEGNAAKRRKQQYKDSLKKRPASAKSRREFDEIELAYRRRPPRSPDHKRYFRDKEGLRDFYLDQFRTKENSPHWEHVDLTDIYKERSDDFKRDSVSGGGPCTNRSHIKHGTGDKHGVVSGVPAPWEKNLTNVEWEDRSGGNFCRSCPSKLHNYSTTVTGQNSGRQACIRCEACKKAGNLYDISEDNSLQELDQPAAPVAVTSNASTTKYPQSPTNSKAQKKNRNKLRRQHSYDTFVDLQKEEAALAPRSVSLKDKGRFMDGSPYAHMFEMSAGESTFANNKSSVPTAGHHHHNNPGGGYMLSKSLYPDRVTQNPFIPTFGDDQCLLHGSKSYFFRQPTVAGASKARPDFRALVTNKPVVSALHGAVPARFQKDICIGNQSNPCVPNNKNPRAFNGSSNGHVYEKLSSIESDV
Summary of the method: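 Calcium influx followed by FLIPR fluorescence after 5 min compound exposure and a further 5 min co-agonist challenge: 10 μM glycine with glutamate at ~EC80 (standard) or EC40 (HTS).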
`CC(O)(c1cnc(OCc2cn(-c3ccc(F)c(C(F)(F)F)c3)nn2)nc1)C(F)(F)F` (racemic) [Example 441, (R/S)-1,1,1-Trifluoro-2-[2-[[1-[4-fluoro-3-(trifluoromethyl)phenyl]triazol-4-yl]methoxy]pyrimidin-5-yl]propan-2-ol] gave an IC50 of 0.412 µM.
In the case of `CC(O)c1cnc(OCc2cn(-c3ccc(Cl)c(C(C)(F)F)c3)nn2)nc1` (racemic) [Example 551, (R/S)-1-[2-[[1-[4-Chloro-3-(1,1-difluoroethyl)phenyl]triazol-4-yl]methoxy]pyrimidin-5-yl]ethanol], the IC50 is reported as 0.014 µM.
`Cc1cnc(OCc2cn(-c3cc(F)ccc3F)nn2)nc1` [Example 603, 2-[[1-(2,5-Difluorophenyl)triazol-4-yl]methoxy]-5-methyl-pyrimidine] showed an IC50 of 10.4 µM.
`CC(F)(F)c1cc(-n2cc(COc3ncc(C(C)(O)C(F)(F)F)cn3)nn2)ccc1F` (racemic) [Example 565, (R/S)-2-[2-[[1-[3-(1,1-Difluoroethyl)-4-fluoro-phenyl]triazol-4-yl]methoxy]pyrimidin-5-yl]-1,1,1-trifluoro-propan-2-ol] gave an IC50 of 0.308 µM.
For `CC(F)(F)c1cc(-n2cc(COc3ncc(OC(F)F)cn3)nn2)ccc1F` [Example 572, 2-[[1-[3-(1,1-Difluoroethyl)-4-fluoro-phenyl]triazol-4-yl]methoxy]-5-(difluoromethoxy)pyrimidine], the IC50 was 0.025 µM.
In the case of `CC(F)(F)c1cc(-n2cc(COc3ncc(C(C)(O)C(F)(F)F)cn3)nn2)ccc1Cl` (racemic) [Example 539, (R/S)-2-[2-[[1-[4-Chloro-3-(1,1-difluoroethyl)phenyl]triazol-4-yl]methoxy]pyrimidin-5-yl]-1,1,1-trifluoro-propan-2-ol], the IC50 is reported as 0.45 µM.
`Cc1cc(-n2cc(COc3ncccn3)nn2)ccc1F` [Example 473, 2-[[1-(4-Fluoro-3-methyl-phenyl)triazol-4-yl]methoxy]pyrimidine] showed an IC50 of 0.072 µM.
With `Cc1cnc(OCc2cn(-c3ccnc(C(F)(F)F)c3)nn2)nc1` [Example 666, 5-Methyl-2-[[1-[2-(trifluoromethyl)-4-pyridyl]triazol-4-yl]methoxy]pyrimidine] the IC50 was 0.668 µM.
`COc1cnc(OCc2cn(-c3ccc(F)cc3C)nn2)nc1` [Example 488, 2-[[1-(4-Fluoro-2-methyl-phenyl)triazol-4-yl]methoxy]-5-methoxy-pyrimidine] was tested, and the IC50 was 2.65 µM.
`FC(F)c1ccnc(OCc2cn(-c3ccc(Cl)c(C(F)F)c3)nn2)n1` [Example 628, 2-[[1-[4-Chloro-3-(difluoromethyl)phenyl]triazol-4-yl]methoxy]-4-(difluoromethyl)pyrimidine] gave an IC50 of 0.042 µM.
Molecule `CCc1cnc(OCc2cn(-c3ccnc(Br)c3)nn2)nc1` [Example 665, 2-[[1-(2-Bromo-4-pyridyl)triazol-4-yl]methoxy]-5-ethyl-pyrimidine] has an IC50 of 0.261 µM.
Molecule `CC(F)(F)c1cc(-n2cc(COc3nccc(N4CCCCC4)n3)nn2)ccc1F` [Example 592, 2-[[1-[3-(1,1-Difluoroethyl)-4-fluoro-phenyl]triazol-4-yl]methoxy]-4-(1-piperidyl)pyrimidine] has an IC50 of 0.271 µM.
Molecule `OCc1ccnc(OCc2cn(-c3ccc(Cl)c(C(F)F)c3)nn2)n1` [Example 625, [2-[[1-[4-Chloro-3-(difluoromethyl)phenyl]triazol-4-yl]methoxy]pyrimidin-4-yl]methanol] has an IC50 of 0.017 µM.

Same assay, conditions: standard assay; human GluN1/GluN2B, calcium flux (FLIPR), glutamate ~EC80
`Cc1nc(OCc2cn(-c3cccc(C(F)F)c3)nn2)ncc1Cl` [Example 279, 5-Chloro-2-[[1-[3-(difluoromethyl)phenyl]triazol-4-yl]methoxy]-4-methyl-pyrimidine] gave an IC50 of 0.003 µM.
`Cc1c(F)ccc(-n2cc(COc3ncc(Cl)cn3)nn2)c1F` [Example 37, 5-Chloro-2-[[1-(2,4-difluoro-3-methyl-phenyl)triazol-4-yl]methoxy]pyrimidine] gave an IC50 of 0.053 µM.
`CC(=O)c1cnc(OCc2cn(-c3ccc(F)c(C(F)F)c3)nn2)nc1` [Example 156, 1-[2-[[1-[3-(Difluoromethyl)-4-fluoro-phenyl]triazol-4-yl]methoxy]pyrimidin-5-yl]ethanone] gave an IC50 of 0.005 µM.
For `Cc1cnc(OCc2cn(-c3cccc(C(F)F)c3)nn2)nc1C` [Example 155, 2-[[1-[3-(Difluoromethyl)phenyl]triazol-4-yl]methoxy]-4,5-dimethyl-pyrimidine], the IC50 was 0.006 µM.
`CC(F)(F)c1cc(-n2cc(COc3ncc(-c4cn[nH]c4)cn3)nn2)ccc1F` [Example 185, 2-[[1-[3-(1,1-Difluoroethyl)-4-fluoro-phenyl]triazol-4-yl]methoxy]-5-(1H-pyrazol-4-yl)pyrimidine] showed an IC50 of 0.166 µM.
`CCc1cnc(OCc2cn(-c3ccc(F)c(C(C)(F)F)c3)nn2)nc1` [Example 67, 2-[[1-[3-(1,1-Difluoroethyl)-4-fluoro-phenyl]triazol-4-yl]methoxy]-5-ethyl-pyrimidine] gave an IC50 of 0.015 µM.
`Cc1cnc(OCc2nnn(-c3ccc(F)c(C(C)(F)F)c3)c2C)nc1` [Example 173, 2-[[1-[3-(1,1-Difluoroethyl)-4-fluoro-phenyl]-5-methyl-triazol-4-yl]methoxy]-5-methyl-pyrimidine] was tested, and the IC50 was 0.465 µM.
With `Fc1ccc(-n2cc(COc3nccc(N4CCCC4)n3)nn2)cc1OC(F)F` [Example 168, 2-[[1-[3-(Difluoromethoxy)-4-fluoro-phenyl]triazol-4-yl]methoxy]-4-pyrrolidin-1-yl-pyrimidine] the IC50 was 0.008 µM.
`FC(F)c1cc(-n2cc(CNc3ncc(C(F)(F)F)cn3)nn2)ccc1Cl` [Example 205, N-[[1-[4-Chloro-3-(difluoromethyl)phenyl]triazol-4-yl]methyl]-5-(trifluoromethyl)pyrimidin-2-amine] was tested, and the IC50 was 0.616 µM.
For `C[C@H](Oc1ncccn1)c1cn(-c2ccc(Cl)c(OC(F)F)c2)nn1` [Example 378, 2-[(1S)-1-[1-[4-Chloro-3-(difluoromethoxy)phenyl]triazol-4-yl]ethoxy]pyrimidine], the IC50 was 2.3 µM.
In the case of `FC(F)c1cc(-n2cc(CNc3ccncn3)nn2)ccc1Cl` [Example 110, N-[[1-[4-Chloro-3-(difluoromethyl)phenyl]triazol-4-yl]methyl]pyrimidin-4-amine], the IC50 is reported as 7.57 µM.
Molecule `COc1cnc(OCc2cn(-c3cccc(OC(F)(F)F)c3)nn2)nc1` [Example 349, 5-Methoxy-2-[[1-[3-(trifluoromethoxy)phenyl]triazol-4-yl]methoxy]pyrimidine] has an IC50 of 0.013 µM.
Molecule `COc1cnc(OCc2cn(-c3ccc(F)c(CCCCl)c3)nn2)nc1` [Example 195, 2-[[1-[3-(3-Chloropropyl)-4-fluoro-phenyl]triazol-4-yl]methoxy]-5-methoxy-pyrimidine] has an IC50 of 0.136 µM.
In the case of `COc1cnc(OCc2cn(-c3cc(C)cc(C)c3)nn2)nc1` [Example 362, 2-[[1-(3,5-Dimethylphenyl)triazol-4-yl]methoxy]-5-methoxy-pyrimidine], the IC50 is reported as 0.032 µM.
Molecule `Clc1cnc(OCc2cn(-c3ccc4c(c3)CCC4)nn2)nc1` [Example 367, 5-Chloro-2-[(1-indan-5-yltriazol-4-yl)methoxy]pyrimidine] has an IC50 of 0.053 µM.
`COC(C)c1cnc(OCc2cn(-c3cccc(C(C)(F)F)c3)nn2)nc1` (racemic) [Example 311, (R/S)-2-[[1-[3-(1,1-Difluoroethyl)phenyl]triazol-4-yl]methoxy]-5-(1-methoxyethyl)pyrimidine] was tested, and the IC50 was 1.58 µM.
With `FC(F)Oc1cc(-n2cc(COc3ncccc3Cl)nn2)ccc1Cl` [Example 105, 3-Chloro-2-[[1-[4-chloro-3-(difluoromethoxy)phenyl]triazol-4-yl]methoxy]pyridine] the IC50 was 0.059 µM.
`Cc1cnc(OCc2cn(-c3cccc(C)c3)nn2)nc1` [Example 243, 5-Methyl-2-[[1-(m-tolyl)triazol-4-yl]methoxy]pyrimidine] showed an IC50 of 0.014 µM.
`FC(F)Oc1cc(-n2cc(COc3cccnc3)nn2)ccc1Cl` [Example 5, 3-[[1-[4-Chloro-3-(difluoromethoxy)phenyl]triazol-4-yl]methoxy]pyridine] showed an IC50 of 0.333 µM.
`CC(F)(F)c1cccc(-n2cc(COc3ncc(C4CC4)cn3)nn2)c1` [Example 319, 5-Cyclopropyl-2-[[1-[3-(1,1-difluoroethyl)phenyl]triazol-4-yl]methoxy]pyrimidine] was tested, and the IC50 was 0.015 µM.
`Fc1ccc(-n2cc(COc3ncccn3)nn2)cc1C(F)(F)F` [Example 82, 2-[[1-[4-Fluoro-3-(trifluoromethyl)phenyl]triazol-4-yl]methoxy]pyrimidine] was tested, and the IC50 was 0.126 µM.
`CN(C)c1ccnc(OCc2cn(-c3cccc(C(C)(F)F)c3)nn2)n1` [Example 318, 2-[[1-[3-(1,1-Difluoroethyl)phenyl]triazol-4-yl]methoxy]-N,N-dimethyl-pyrimidin-4-amine] gave an IC50 of 0.026 µM.
Molecule `COc1cnc(OCc2cn(-c3cccc(C(C)(F)F)c3)nn2)nc1` [Example 306, 2-[[1-[3-(1,1-Difluoroethyl)phenyl]triazol-4-yl]methoxy]-5-methoxy-pyrimidine] has an IC50 of 0.003 µM.
`CCc1cnc(OCc2cn(-c3ccc(Cl)c(C(F)F)c3)nn2)nc1` [Example 32, 2-[[1-[4-Chloro-3-(difluoromethyl)phenyl]triazol-4-yl]methoxy]-5-ethyl-pyrimidine] gave an IC50 of 0.002 µM.
In the case of `CC(C)c1cnc(OCc2cn(-c3ccc(F)c(C(C)(F)F)c3)nn2)nc1` [Example 70, 2-[[1-[3-(1,1-Difluoroethyl)-4-fluoro-phenyl]triazol-4-yl]methoxy]-5-isopropyl-pyrimidine], the IC50 is reported as 0.044 µM.
`CC(C)c1cnc(NCc2cn(-c3ccc(F)c(C(C)(F)F)c3)nn2)nc1` [Example 208, N-[[1-[3-(1,1-Difluoroethyl)-4-fluoro-phenyl]triazol-4-yl]methyl]-5-isopropyl-pyrimidin-2-amine] was tested, and the IC50 was 0.581 µM.
`Fc1cnc(OCc2cn(-c3ccc(Cl)c(OC(F)F)c3)nn2)nc1` [Example 95, 2-[[1-[4-Chloro-3-(difluoromethoxy)phenyl]triazol-4-yl]methoxy]-5-fluoro-pyrimidine] gave an IC50 of 0.023 µM.
`FC(F)c1cccc(-n2cc(COc3ncccn3)nn2)c1` [Example 93, 2-[[1-[3-(Difluoromethyl)phenyl]triazol-4-yl]methoxy]pyrimidine] was tested, and the IC50 was 0.493 µM.
With `CCc1cnc(OCc2cn(-c3cc(C)cc(C)c3)nn2)nc1` [Example 365, 2-[[1-(3,5-Dimethylphenyl)triazol-4-yl]methoxy]-5-ethyl-pyrimidine] the IC50 was 0.022 µM.

From US10233173B2, “Substituted 1,2,3-triazoles as NR2B-selective NMDA modulators” (JANSSEN PHARMACEUTICA NV, priority 2016, dated 2019)
